We go through 1 compound from ChEMBL document CHEMBL2074401, “Difloxacin reverses multidrug resistance in HL-60/AR cells that overexpress the multidrug resistance-related protein (MRP) gene” (Oncol Res, 1995).

This data set concerns the target Multidrug resistance-associated protein 1 (Homo sapiens, UniProt P33527). Description: TP_TRANSPORTER: increase in Daunorubicin, Adriamycin and Vincristine intracellular accumulation (Daunorubicin: 4 ug/mL, Difloxacin: 62.5 uM) in HL-60/AR cells. The format is functional, cell-based.

Sequence of Multidrug resistance-associated protein 1 (P33527 whole entry): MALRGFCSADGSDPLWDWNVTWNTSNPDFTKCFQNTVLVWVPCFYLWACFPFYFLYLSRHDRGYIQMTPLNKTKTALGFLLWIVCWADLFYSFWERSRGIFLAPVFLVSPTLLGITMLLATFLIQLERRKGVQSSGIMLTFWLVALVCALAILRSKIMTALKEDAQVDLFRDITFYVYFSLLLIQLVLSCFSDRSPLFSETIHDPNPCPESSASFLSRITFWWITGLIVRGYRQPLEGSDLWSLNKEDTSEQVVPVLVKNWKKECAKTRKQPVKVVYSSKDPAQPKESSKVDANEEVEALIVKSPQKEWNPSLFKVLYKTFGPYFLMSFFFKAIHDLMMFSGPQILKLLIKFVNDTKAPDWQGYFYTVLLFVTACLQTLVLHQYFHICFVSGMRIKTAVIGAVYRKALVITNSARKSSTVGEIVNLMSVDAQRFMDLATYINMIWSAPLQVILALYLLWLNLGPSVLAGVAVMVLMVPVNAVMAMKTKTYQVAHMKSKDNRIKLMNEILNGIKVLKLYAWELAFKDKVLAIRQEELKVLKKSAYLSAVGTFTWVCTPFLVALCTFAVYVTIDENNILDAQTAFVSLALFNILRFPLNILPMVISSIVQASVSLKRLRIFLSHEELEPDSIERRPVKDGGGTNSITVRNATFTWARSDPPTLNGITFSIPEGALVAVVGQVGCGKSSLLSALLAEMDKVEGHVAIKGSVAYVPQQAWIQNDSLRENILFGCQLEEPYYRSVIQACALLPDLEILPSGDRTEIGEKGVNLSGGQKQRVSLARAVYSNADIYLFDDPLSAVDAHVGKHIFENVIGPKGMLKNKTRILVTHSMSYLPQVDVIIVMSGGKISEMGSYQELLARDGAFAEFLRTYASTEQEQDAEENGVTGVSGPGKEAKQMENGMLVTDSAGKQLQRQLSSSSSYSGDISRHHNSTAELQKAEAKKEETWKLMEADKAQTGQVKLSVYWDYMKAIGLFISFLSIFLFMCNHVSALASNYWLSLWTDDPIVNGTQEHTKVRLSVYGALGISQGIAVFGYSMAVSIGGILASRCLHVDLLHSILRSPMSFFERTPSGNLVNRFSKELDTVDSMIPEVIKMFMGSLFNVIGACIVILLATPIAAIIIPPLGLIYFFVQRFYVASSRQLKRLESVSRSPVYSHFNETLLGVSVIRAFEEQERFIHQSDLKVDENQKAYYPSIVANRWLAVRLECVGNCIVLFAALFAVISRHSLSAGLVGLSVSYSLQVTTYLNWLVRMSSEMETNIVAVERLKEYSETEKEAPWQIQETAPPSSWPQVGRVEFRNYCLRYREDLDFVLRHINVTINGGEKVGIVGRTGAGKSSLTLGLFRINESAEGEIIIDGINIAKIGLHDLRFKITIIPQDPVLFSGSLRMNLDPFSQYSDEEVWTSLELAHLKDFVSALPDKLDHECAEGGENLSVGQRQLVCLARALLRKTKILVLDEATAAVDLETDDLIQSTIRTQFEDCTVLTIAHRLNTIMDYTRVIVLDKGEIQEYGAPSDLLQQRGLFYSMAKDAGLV

As to `CN1CCN(c2cc3c(cc2F)c(=O)c(C(=O)O)cn3-c2ccc(F)cc2)CC1` [DIFLOXACIN], the Activity result was “inhibitor [1.3 to 2.9-fold]”.
